Measured values taken from patent publication US7074938B2, “Method for the synthesis of soritin compounds” (The Regents of the University of California, priority 2002, dated 2006).
Marks after values point to notes of the source that are not given here.

Assays:
Type in all cases: in vivo
[1] = test system: PMA-induced edema of the mouse ear; experiment: Inhibition of PMA-induced inflammation (edema) of the mouse ear; conditions: 3 h 20 min, in mg (unit assumed)
Description: The test compound made by the method of the present invention and a known inflammatory agent, phorbol myristate acetate (PMA), are topically applied simultaneously to the left ears of mice. Three hours and 20 minutes following application, the mice are sacrificed. Both left ears and right ears are removed and standard sized bores taken. Edema (inflammation) is measured as the difference in weight between left and right ears. See Van Arman, C. G. (1974) Clin. Pharmacol. Ther. 16:900–904, which is herein incorporated by reference.
Soritin B and a known inflammatory agent, phorbol myristate acetate (PMA), were topically applied simultaneously to the left ears of mice. Three hours and 20 minutes following application, the mice were sacrificed. Both left ears and right ears were removed and standard sized bores taken. Edema (inflammation) was measured as the difference in weight between left and right ears. See Van Arman, C. G. (1974) Clin. Pharmacol. Ther. 16:900–904, which is herein incorporated by reference.

[2] = test system: RTX-induced edema of the mouse ear; experiment: Inhibition of resiniferatoxin (RTX)-induced inflammation (edema) of the mouse ear; conditions: 30 min
Description: Induction of mouse ear edema can be conducted according to known methods. See Inoue, 1-f., N. Nagata, Y. Koshffiara (1993), which is herein incorporated by reference. Soritin compounds to be tested for anti-neurogenic inflammatory activity are topically applied in acetone to the ears of mice in a solution that includes the edema-causing irritant resiniferatoxin (RTX). RTX alone (0.1 μg/ear) or in combination with various dilutions of test compound are applied to both sides of the left ears (5 mice per treatment group) and acetone is applied to all right ears. After a 30-minute incubation, the mice are sacrificed, the ears removed, and bores taken and weighed. Edema is measured by subtracting the weight of the right ear (acetone control) from the weight of the left ear (treated). Results are recorded as % decrease (inhibition) or % increase (potentiation) in edema relative to the control group edema.
Soritin B was tested for anti-neurogenic inflammatory activity by topically applying in acetone to the ears of mice in a solution that includes the edema-causing irritant resiniferatoxin (RTX) as provided above. See Inoue, 1-f., N. Nagata, Y. Koshffiara (1993), which is herein incorporated by reference. Specifically, RTX alone (0.1 μg/ear) or in combination with various dilutions of Soritin B was applied to both sides of the left ears (5 mice per treatment group) and acetone was applied to all right ears. After a 30-minute incubation, the mice are sacrificed, the ears removed, and bores taken and weighed. Edema was measured by subtracting the weight of the right ear (acetone control) from the weight of the left ear (treated). Results were recorded as % decrease (inhibition) or % increase (potentiation) in edema relative to the control group edema.

test ears of mice = experiment: Soritin B coloration and irritation when applied to mouse ear skin

Structure (SMILES): COC(=O)C(c1c[nH]c2ccccc12)c1c[nH]c2ccccc12 [Soritin B, bis-(1H-indol-3-yl)-acetic acid methyl ester]
- Mean edema (difference in weight between left and right ear bores) ([1]; 3.12 μg/ear topical with PMA 2.0 μg/ear): 10.0**
- Mean edema (difference in weight between left and right ear bores) ([1]; 6.25 μg/ear topical with PMA 2.0 μg/ear): 9.7**
- Mean edema (difference in weight between left and right ear bores) ([1]; 12.5 μg/ear topical with PMA 2.0 μg/ear): 8.6*
- Mean edema (difference in weight between left and right ear bores) ([1]; 25 μg/ear topical with PMA 2.0 μg/ear): 5.9*
- Mean edema (difference in weight between left and right ear bores) ([1]; 50 μg/ear topical with PMA 2.0 μg/ear): 3.4*
- Mean edema (weight of left ear minus right ear bores) ([2]; 3.12 μg/ear topical in acetone with RTX 0.1 μg/ear): 9.1
- Mean edema (weight of left ear minus right ear bores) ([2]; 6.25 μg/ear topical in acetone with RTX 0.1 μg/ear): 6.5*
- Mean edema (weight of left ear minus right ear bores) ([2]; 12.5 μg/ear topical in acetone with RTX 0.1 μg/ear): 3.2*
- Mean edema (weight of left ear minus right ear bores) ([2]; 25 μg/ear topical in acetone with RTX 0.1 μg/ear): 1.7*
- Mean edema (weight of left ear minus right ear bores) ([2]; 50 μg/ear topical in acetone with RTX 0.1 μg/ear): 1.0*
- Redness or swelling after overnight exposure (test ears of mice; 50 μg/ear, overnight exposure, compared to controls): did not result in any discernable redness or swelling
- Coloration on test ears (test ears of mice; in acetone alone and in combination with PMA or RTX, from beginning to end of the experiments): did not exhibit any discernable coloration
